In experiment [1] the target is HDAC5 (Homo sapiens, UniProt Q9UQL6). The experiment is described as follows: Multiplexed selectivity western blot in Jurkat cells, HDAC5. The following applies: Jurkat E6-1, 24 h, concentration response. The format is cell-based. (Immunoblotting shows a protein as a band on a membrane.)
The target in experiment [2] is T1, HDAC4 (Homo sapiens, UniProt P56524). Briefly: Recombinant HDAC4 enzymatic inhibition assay. The note with it: HDAC enzymatic activity assays.
Target sequence in this assay (P56524 655-1084 limits assumed): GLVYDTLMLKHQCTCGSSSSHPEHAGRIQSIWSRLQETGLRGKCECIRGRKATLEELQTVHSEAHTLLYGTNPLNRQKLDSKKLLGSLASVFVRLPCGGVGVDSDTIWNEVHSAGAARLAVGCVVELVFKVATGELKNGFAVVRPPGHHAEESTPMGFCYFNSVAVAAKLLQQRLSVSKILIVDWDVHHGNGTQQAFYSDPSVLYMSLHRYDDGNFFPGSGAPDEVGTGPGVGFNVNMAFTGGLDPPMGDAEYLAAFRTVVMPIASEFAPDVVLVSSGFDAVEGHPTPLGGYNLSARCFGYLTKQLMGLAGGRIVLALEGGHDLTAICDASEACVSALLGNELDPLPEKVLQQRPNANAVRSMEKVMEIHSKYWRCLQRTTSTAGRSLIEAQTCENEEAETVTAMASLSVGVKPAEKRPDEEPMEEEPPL
Experiment [3] relates to class I HDAC. The following applies: read-out: HDAC cellular IC50 class I; Jurkat E6.1, treated for 24 h; substrate Boc-Lys(Ac)AMC.
Experiment [4] concerns the target T1, HDAC4. The experiment is described as follows: HDAC4 degradation by western blot in Jurkat E6-1 cells. The following applies: Jurkat E6-1, 24 h; for hook effect: immunoblot, at 10 μM. The format is cell-based.
Target sequence in this assay (P56524 whole entry): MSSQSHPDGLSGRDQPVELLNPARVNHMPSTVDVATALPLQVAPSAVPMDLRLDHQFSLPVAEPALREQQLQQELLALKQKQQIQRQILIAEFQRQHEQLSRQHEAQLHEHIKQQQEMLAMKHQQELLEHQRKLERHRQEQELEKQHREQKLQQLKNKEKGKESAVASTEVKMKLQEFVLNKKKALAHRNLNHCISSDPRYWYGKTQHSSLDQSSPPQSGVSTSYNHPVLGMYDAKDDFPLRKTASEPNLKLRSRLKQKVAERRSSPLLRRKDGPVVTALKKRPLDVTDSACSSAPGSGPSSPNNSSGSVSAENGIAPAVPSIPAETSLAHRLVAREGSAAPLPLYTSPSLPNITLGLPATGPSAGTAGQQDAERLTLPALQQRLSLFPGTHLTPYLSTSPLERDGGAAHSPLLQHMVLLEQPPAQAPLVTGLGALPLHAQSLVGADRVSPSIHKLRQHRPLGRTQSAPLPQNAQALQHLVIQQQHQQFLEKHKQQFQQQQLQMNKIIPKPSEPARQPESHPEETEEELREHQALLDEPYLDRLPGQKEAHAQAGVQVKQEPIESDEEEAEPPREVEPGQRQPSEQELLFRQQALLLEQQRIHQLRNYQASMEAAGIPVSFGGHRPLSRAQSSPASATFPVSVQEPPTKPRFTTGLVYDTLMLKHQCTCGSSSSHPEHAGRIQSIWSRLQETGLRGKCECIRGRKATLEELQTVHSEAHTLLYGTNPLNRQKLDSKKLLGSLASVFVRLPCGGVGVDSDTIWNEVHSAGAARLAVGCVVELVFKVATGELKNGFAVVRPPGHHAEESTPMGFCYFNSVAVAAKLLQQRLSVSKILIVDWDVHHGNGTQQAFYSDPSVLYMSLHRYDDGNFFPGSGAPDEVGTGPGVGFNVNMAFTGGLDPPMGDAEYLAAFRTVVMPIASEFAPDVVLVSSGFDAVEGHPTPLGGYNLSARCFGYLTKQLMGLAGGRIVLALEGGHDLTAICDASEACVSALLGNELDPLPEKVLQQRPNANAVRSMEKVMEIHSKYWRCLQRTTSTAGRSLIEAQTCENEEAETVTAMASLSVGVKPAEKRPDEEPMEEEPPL
The target in experiment [5] is HDAC1 (Homo sapiens, UniProt Q13547). The experiment is described as follows: Multiplexed selectivity western blot in Jurkat cells, HDAC1. The format is cell-based. The following applies: Jurkat E6-1, 24 h, concentration response.
Chain of HDAC1 (Q13547 whole entry): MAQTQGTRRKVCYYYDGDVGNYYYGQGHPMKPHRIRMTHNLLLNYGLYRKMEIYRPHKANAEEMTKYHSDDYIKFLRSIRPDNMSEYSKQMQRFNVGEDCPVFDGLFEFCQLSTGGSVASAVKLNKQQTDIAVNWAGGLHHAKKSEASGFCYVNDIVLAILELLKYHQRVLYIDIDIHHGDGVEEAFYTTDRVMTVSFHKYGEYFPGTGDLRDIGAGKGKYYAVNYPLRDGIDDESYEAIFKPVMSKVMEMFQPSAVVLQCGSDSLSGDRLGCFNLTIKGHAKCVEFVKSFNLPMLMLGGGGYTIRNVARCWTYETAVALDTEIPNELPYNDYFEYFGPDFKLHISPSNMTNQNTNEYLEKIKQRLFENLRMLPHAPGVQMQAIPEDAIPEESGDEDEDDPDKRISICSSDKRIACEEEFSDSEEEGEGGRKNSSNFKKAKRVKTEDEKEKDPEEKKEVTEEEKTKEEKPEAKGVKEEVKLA
Experiment [6] has as its target HDAC3 (Homo sapiens, UniProt O15379). Briefly: Multiplexed selectivity western blot in Jurkat cells, HDAC3. Format: cell-based. The following applies: Jurkat E6-1, 24 h, concentration response up to 10 μM.
Experiment [7] addresses T2, HDAC7 (Homo sapiens, UniProt Q8WUI4).
T2 sequence (Q8WUI4 1-952): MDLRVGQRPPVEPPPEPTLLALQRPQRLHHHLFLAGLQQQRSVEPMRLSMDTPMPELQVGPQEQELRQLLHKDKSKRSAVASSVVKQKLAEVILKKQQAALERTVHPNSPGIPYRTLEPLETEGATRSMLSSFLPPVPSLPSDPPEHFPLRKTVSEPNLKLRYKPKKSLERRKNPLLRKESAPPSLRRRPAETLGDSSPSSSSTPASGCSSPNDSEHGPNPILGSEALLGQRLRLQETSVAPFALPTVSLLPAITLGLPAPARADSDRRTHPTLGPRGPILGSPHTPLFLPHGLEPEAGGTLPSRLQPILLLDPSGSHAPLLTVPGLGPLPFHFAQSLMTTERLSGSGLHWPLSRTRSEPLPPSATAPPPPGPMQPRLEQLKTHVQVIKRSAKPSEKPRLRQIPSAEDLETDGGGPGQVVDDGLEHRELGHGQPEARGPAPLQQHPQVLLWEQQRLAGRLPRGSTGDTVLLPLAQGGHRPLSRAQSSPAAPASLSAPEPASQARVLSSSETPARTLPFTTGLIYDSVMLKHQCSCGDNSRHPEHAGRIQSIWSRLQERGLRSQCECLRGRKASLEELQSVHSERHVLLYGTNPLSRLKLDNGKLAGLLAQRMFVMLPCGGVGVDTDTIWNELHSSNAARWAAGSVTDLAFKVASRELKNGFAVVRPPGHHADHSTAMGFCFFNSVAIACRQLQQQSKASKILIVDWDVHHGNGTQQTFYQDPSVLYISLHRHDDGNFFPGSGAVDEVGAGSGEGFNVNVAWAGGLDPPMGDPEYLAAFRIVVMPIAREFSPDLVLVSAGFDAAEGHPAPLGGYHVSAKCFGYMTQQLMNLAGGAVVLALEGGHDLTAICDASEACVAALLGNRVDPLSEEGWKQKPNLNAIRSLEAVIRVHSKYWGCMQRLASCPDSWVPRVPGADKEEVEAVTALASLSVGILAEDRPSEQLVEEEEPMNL
Briefly: Multiplexed selectivity western blot in Jurkat cells, HDAC7. The following applies: Jurkat E6-1, 24 h, concentration response. Format: cell-based.

The target of experiment [8] is HDAC9 (Homo sapiens, UniProt Q9UKV0). Briefly: Multiplexed selectivity western blot in Jurkat cells, HDAC9. Format: cell-based. The note with it: Jurkat E6-1, 24 h, concentration response.
Chain of HDAC9 (Q9UKV0 whole entry): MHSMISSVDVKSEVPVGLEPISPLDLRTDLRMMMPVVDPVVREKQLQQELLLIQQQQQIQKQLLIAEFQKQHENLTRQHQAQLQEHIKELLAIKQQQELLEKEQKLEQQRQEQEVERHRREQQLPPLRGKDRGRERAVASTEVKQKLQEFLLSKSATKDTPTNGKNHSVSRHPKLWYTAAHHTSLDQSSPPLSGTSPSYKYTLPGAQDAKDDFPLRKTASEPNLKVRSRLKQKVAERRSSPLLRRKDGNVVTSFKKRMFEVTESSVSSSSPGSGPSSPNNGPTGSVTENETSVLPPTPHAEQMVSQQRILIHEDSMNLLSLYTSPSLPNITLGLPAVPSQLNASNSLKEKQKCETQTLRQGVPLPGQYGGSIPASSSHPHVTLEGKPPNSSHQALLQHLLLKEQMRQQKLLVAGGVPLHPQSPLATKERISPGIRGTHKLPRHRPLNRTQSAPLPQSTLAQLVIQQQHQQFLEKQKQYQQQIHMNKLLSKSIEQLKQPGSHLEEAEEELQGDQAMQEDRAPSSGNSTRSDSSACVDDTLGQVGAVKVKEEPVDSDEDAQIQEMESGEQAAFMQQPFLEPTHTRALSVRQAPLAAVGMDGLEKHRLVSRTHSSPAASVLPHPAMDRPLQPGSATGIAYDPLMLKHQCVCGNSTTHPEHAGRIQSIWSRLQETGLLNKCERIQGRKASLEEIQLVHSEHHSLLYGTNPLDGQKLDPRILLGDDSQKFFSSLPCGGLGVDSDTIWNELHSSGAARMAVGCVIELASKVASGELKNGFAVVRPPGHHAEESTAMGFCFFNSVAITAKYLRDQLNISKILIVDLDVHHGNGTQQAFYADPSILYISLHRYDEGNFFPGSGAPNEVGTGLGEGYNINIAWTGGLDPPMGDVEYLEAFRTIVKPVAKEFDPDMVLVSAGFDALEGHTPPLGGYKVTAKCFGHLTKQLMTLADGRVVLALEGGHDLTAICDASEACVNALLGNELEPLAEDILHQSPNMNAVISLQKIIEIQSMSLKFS
Experiment [9] deals with T1, HDAC4. The format is cell-based. The following applies: Jurkat E6-1, 6 h; compound 7 at 1 μM, compound 11 at 100 nM.
Target sequence in this assay (P56524 whole entry): as the sequence (P56524 whole entry) above
The target of experiment [10] is HDAC4 (Mus musculus, UniProt Q6NZM9). The note with it: R6/2 mice, chronic administration; cited from earlier work.
Experiment [11] has as its system aggregate load. The following applies: R6/2 mice, chronic administration, cortex and brain stem; cited from earlier work.

Chain of HDAC5 (Q9UQL6 whole entry): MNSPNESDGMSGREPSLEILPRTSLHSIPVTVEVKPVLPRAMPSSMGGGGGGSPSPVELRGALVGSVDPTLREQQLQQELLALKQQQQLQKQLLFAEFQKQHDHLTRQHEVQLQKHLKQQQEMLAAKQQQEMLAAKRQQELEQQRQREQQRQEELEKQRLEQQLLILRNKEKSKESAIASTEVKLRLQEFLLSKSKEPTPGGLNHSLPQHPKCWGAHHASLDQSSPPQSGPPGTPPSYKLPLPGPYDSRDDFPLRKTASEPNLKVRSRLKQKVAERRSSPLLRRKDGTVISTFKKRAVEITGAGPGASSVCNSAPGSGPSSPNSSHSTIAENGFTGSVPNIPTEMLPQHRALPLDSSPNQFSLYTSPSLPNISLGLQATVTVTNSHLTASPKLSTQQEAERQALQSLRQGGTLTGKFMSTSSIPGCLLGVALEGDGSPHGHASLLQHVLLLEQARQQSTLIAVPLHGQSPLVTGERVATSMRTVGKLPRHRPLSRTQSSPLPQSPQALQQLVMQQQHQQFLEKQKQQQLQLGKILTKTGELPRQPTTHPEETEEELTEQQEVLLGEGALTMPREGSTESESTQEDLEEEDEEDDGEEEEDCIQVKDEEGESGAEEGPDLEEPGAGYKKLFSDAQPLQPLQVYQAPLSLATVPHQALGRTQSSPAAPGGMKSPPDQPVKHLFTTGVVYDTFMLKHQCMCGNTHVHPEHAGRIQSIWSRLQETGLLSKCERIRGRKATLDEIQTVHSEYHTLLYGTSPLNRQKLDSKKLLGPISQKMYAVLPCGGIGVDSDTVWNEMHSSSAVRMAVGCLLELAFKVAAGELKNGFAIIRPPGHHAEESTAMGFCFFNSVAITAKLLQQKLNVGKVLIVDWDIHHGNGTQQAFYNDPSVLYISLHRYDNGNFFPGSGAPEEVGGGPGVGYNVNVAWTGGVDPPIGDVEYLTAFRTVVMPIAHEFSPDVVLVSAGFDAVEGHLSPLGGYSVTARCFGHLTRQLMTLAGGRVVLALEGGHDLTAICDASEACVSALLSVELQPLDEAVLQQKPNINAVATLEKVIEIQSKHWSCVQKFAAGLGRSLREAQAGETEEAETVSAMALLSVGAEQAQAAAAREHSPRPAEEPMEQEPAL
Chain of HDAC3 (O15379 whole entry): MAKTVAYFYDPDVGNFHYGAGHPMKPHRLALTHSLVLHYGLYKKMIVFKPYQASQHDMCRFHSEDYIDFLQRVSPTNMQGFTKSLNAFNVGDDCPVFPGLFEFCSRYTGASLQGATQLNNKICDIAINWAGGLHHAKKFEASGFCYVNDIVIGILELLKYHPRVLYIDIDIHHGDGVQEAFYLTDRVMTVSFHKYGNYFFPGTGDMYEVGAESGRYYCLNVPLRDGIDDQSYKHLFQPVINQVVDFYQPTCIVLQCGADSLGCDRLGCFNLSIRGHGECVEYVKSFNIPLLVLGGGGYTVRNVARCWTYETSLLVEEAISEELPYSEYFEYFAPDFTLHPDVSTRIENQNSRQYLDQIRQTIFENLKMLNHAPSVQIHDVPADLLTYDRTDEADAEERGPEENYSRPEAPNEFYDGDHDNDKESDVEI

On to `Cc1ncsc1-c1ccc(CNC(=O)[C@@H]2C[C@@H](O)CN2C(=O)[C@@H](NC(=O)COCCOCCOCCOCCOCC(F)(F)c2cnc(-c3ccc(C(C(=O)NO)c4ccccc4F)cc3)nc2)C(C)(C)C)cc1` (stereo partly drawn) [Compound 7, (2S,4R)-1-((2S)-2-(tert-Butyl)-20,20-difluoro-20-(2-(4-(1-(2-fluorophenyl)-2-(hydroxyamino)-2-oxoethyl)phenyl)pyrimidin-5-yl)-4-oxo-6,9,12,15,18-pentaoxa-3-azaicosan-1-oyl)-4-hydroxy-N-(4-(4-methylthiazol-5-yl)benzyl)pyrrolidine-2-carboxamide], for which, in experiment [1], the “degradation of HDAC5 by western blot” value is listed as “neither compound demonstrated degradation”. The “higher inhibition of HDAC5, HDAC7, and HDAC9 compared to HDAC4” value in experiment [2] is given as 3- to 4 fold. For the same compound, the IC50 – broadly, the concentration that inhibits the measured activity by half – in experiment [3] is greater than 5 µM. Further, the hook effect result in experiment [4] was “hook effect was observed”. Moreover, the “degradation of HDAC1 by western blot” value in [5] is “neither compound demonstrated degradation”. The “degradation of HDAC3 by western blot” value in experiment [6] is on record as “No concentration-dependent reduction in immunoreactivity”. In addition, in experiment [7], the “degradation of HDAC7 by western blot” value was “neither compound demonstrated degradation”. The “degradation of HDAC9 by western blot” value in experiment [8] is reported as “neither compound demonstrated degradation”. The “HDAC4 degradation in the presence of 1 μM proteasome inhibitors MG132 or carfilzomib” value in experiment [9] is “HDAC4 degradation was prevented”.
Turning to `Cc1ncsc1-c1ccc(CNC(=O)[C@@H]2C[C@H](O)CN2C(=O)[C@@H](NC(=O)COCCOCCOCCOCCOCC(F)(F)c2cnc(-c3ccc(C(C(=O)NO)c4ccccc4F)cc3)nc2)C(C)(C)C)cc1` (stereo partly drawn) [Compound 8, (2S,4S)-1-((2S)-2-(tert-Butyl)-20,20-difluoro-20-(2-(4-(1-(2-fluorophenyl)-2-(hydroxyamino)-2-oxoethyl)phenyl)pyrimidin-5-yl)-4-oxo-6,9,12,15,18-pentaoxa-3-azaicosanoyl)-4-hydroxy-N-(4-(4-methylthiazol-5-yl)benzyl)pyrrolidine-2-carboxamide], the IC50 in experiment [3] was greater than 5 µM. For the same compound, the “HDAC4 degradation at 10 μM by immunoblot” value in [4] was “did not induce HDAC4 degradation”.
With `CCCN(CCCCOCCOCCOCCOCCOCC(=O)N[C@H](C(=O)N1C[C@H](O)C[C@H]1C(=O)NCc1ccc(-c2scnc2C)cc1)C(C)(C)C)C[C@@H](C)NC(=O)c1ccc(-c2noc(C(F)(F)F)n2)cc1` [Compound 11, (2S,4R)-1-((3R,26S)-26-(tert-Butyl)-3-methyl-1,24-dioxo-5-propyl-1-(4-(5-trifluoromethyl-1,2,4-oxadiazol-3-yl)phenyl)-10,13,16,19,22-pentaoxa-2,5,25-triazaheptacosan-27-oyl)-4-hydroxy-N-(4-(4-methylthiazol-5-yl)benzyl)pyrrolidine-2-carboxamide], the “degradation of HDAC5 by western blot” value in experiment [1] is reported as “neither compound demonstrated degradation”. Further, in experiment [3], the IC50 was greater than 5 µM. The hook effect entry in [4] is reported as “hook effect was not observed”. For the same compound, in experiment [5], the “degradation of HDAC1 by western blot” value is on record as “neither compound demonstrated degradation”. Moreover, in experiment [6], the “degradation of HDAC3 by western blot” value is recorded as “showed HDAC3 degradation at the highest dose of 10 μM”. In addition, the “degradation of HDAC7 by western blot” value in experiment [7] is reported as “neither compound demonstrated degradation”. The “degradation of HDAC9 by western blot” value in experiment [8] is recorded as “neither compound demonstrated degradation”. Besides, the “HDAC4 degradation in the presence of 1 μM proteasome inhibitors MG132 or carfilzomib” value in experiment [9] is “same effect was observed”.
Take `CCCN(CCCCOCCOCCOCCOCCOCC(=O)N[C@@H](C(=O)N1C[C@@H](O)C[C@@H]1C(=O)NCc1ccc(-c2scnc2C)cc1)C(C)(C)C)C[C@@H](C)NC(=O)c1ccc(-c2noc(C(F)(F)F)n2)cc1` [Compound 12, (2R,4S)-1-((3R,26R)-26-(tert-Butyl)-3-methyl-1,24-dioxo-5-propyl-1-(4-(5-trifluoromethyl-1,2,4-oxadiazol-3-yl)phenyl)-10,13,16,19,22-pentaoxa-2,5,25-triazaheptacosan-27-oyl)-4-hydroxy-N-(4-(4-methylthiazol-5-yl)benzyl)pyrrolidine-2-carboxamide]: in [3], the half-maximal inhibitory concentration (IC50) was greater than 5 µM. The “HDAC4 degradation at 10 μM by immunoblot” value in experiment [4] is reported as “did not induce HDAC4 degradation”.
For the compound `O=C(CCCCCCC(=O)Nc1ccccc1)NO` [SAHA, suberoylanilide hydroxamic acid], the “level of HDAC4 protein in the cortex and brain stem” value in [10] is given as “reduction in the level of HDAC4 protein”. In addition, the “aggregate load in the same brain regions” value in [11] is on record as “decrease in aggregate load”.
